Test results: publication PMC12827894, “Structure-guided design of picomolar-level macrocyclic TRPC5 channel inhibitors with antidepressant activity” (Acta Pharmaceutica Sinica. B, 2025)
pIC50: −log10 of the molar value. Where two headings read alike, the source gives them in different places.

Tests used:
TRPV1 = TRPV1 (Homo sapiens, UniProt Q8NER1); experiment: Patch-clamp selectivity, TRPV1; type: cell-based; conditions: 10 μmol/L
5-HTT = biological target: T1, 5-HTT (Homo sapiens, UniProt P31645); experiment: SafetyOne44 panel: 5-HTT; type: cell-based; conditions: 10 μmol/L, read-out: Antagonist JDIC-127 @10 μmol/L
T1 construct: purchased ICE Bioscience ICESTP™ SafetyOne44 Panel

TRPC6 = TRPC6 (Homo sapiens, UniProt Q9Y210); experiment: Patch-clamp selectivity, TRPC6; type: cell-based; conditions: 1 μmol/L
COX2 = COX2 (Homo sapiens, UniProt P35354); experiment: biochemical; conditions: read-out: Antagonist JDIC-127 @10 μmol/L
C57BL/6J mice = experiment: m-CPP-induced anxiety model, open field test; type: in vivo; conditions: 10 mg/kg p.o.
H1 = H1 (Homo sapiens, UniProt P35367); experiment: cell-based; conditions: read-out: Antagonist JDIC-127 @10 μmol/L
PDE3 A = biological target: T2, PDE3 A (Homo sapiens, UniProt Q14432); experiment: SafetyOne44 panel: PDE3A; type: biochemical; conditions: 10 μmol/L, read-out: Antagonist JDIC-127 @10 μmol/L
T2 construct: purchased ICE Bioscience ICESTP™ SafetyOne44 Panel

in vitro = in vitro ADME; conditions: not told
Text: Table 1 Pharmacokinetic properties of JDIC-127. | column: ER; Papp (cm/s)

COX1 = COX1 (Homo sapiens, UniProt P23219)
GABAA = type: cell-based
TRPC4 = biological target: T3, TRPC4 (Homo sapiens, UniProt Q9UBN4); experiment: Whole-cell patch-clamp, TRPC4, 100 nmol/L EA; type: cell-based; conditions: HEK293T
T3 construct: expressed in transfected cells
Text: Given that TRPC4 and TRPC5 are highly similar and often form heteromeric with TRPC1, we evaluated JDIC-127's activity on TRPC4, TRPC1/4, and TRPC1/5 using whole-cell patch-clamp recordings under agonist stimulation with 100 nmol/L EA in HEK293T cells. […].
For electrophysiological activity testing of compounds against TRPC4 and TRPC5, stably expressed TRPC5 or TRPC4 cells were used for whole-cell patch-clamp recordings, employing a HEKA EPC10 amplifier and […] software (https://www.heka.com/downloads/downloads_main.html#down_patchmaster). Prior to recording, cells were induced with 1 μg/mL tetracycline for 24 h. For TRPC1/4 or TRPC1/5 heteromers, plasmids TRPC1 and TRPC5 or TRPC1 and TRPC4 were co-transfected into HEK293T cells. After 48 to 72 h of transfection, testing was performed. A 1-s ramp protocol from −100 to +100 mV at 0.2 Hz was applied, as previously described. The extracellular solution consisted of 140 mmol/L NaCl, 1 mmol/L MgCl2, 2 mmol/L CaCl2, 10 mmol/L Hepes, 5 mmol/L KCl, and 10 mmol/L D-glucose, with pH adjusted to 7.4 using NaOH. […] The half-maximal inhibitory concentration (IC50) of drugs was determined by recording currents at a +100 mV pulse and analyzing current amplitudes at varying drug concentrations, with IC50 values calculated using the Hill equation. […]

α1A = α1A (Homo sapiens, UniProt P35348); experiment: cell-based; type: cell-based
ETA = biological target: T4, ETA (Homo sapiens, UniProt P25101); experiment: SafetyOne44 panel: ETA; type: cell-based; conditions: ETA, 10 μmol/L
T4 construct: purchased ICE Bioscience ICESTP™ SafetyOne44 Panel
T4 sequence (P25101 21-427): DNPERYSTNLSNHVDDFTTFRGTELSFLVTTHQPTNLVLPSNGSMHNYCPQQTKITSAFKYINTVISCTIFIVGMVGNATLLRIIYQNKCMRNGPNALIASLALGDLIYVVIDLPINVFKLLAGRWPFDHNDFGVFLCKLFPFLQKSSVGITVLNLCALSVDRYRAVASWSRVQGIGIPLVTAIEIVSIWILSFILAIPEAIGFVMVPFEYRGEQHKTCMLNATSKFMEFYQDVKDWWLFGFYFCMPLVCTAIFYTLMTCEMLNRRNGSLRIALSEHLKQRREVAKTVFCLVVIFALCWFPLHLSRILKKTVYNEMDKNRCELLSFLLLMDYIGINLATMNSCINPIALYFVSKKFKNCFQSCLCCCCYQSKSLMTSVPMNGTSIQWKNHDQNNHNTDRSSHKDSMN

in vivo = conditions: male, C57BL/6, mouse, B/P

Sequence of α1A (P35348 whole entry): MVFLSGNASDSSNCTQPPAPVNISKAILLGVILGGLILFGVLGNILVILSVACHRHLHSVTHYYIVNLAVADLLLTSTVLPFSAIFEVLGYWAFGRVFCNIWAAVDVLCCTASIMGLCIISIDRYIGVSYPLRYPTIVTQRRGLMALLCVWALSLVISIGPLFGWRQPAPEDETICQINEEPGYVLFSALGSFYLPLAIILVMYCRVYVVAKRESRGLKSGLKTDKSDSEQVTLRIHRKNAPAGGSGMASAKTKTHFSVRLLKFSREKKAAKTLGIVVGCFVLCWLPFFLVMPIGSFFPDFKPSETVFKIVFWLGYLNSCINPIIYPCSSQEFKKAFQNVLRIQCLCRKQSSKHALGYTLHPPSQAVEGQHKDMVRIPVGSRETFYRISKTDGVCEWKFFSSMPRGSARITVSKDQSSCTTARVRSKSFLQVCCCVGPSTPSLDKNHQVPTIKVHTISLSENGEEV
Sequence of COX2 (P35354 18-604): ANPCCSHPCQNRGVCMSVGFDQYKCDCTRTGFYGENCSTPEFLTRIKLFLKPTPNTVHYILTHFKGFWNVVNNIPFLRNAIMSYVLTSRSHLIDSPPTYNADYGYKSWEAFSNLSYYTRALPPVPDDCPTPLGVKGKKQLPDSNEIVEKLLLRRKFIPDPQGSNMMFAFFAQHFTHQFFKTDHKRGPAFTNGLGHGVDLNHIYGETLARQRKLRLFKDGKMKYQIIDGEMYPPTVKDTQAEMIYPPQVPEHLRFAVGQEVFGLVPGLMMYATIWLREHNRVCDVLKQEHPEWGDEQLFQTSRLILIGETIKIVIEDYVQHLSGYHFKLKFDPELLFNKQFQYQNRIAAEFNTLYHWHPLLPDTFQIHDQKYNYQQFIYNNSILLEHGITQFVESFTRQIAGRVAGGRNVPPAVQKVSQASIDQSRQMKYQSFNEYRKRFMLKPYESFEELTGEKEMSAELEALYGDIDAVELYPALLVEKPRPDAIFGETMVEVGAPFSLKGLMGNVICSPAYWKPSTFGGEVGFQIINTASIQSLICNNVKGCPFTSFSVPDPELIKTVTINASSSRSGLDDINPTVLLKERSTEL
Sequence of COX1 (P23219 24-599): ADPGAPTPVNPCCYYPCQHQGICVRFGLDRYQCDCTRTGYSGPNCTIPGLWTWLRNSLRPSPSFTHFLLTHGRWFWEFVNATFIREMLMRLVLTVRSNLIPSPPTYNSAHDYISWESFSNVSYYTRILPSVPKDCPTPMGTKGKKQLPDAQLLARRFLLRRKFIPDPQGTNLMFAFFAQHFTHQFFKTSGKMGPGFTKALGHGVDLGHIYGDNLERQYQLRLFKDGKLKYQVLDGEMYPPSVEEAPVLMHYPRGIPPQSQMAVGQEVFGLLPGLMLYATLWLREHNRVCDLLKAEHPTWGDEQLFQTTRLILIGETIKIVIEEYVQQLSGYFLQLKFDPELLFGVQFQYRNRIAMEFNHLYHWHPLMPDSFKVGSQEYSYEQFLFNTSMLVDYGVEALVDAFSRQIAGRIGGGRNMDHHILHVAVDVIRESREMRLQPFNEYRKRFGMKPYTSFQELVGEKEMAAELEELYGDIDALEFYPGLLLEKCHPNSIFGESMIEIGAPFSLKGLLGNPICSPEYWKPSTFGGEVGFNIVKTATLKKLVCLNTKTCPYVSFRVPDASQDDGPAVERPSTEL
Sequence of TRPC6 (Q9Y210 whole entry, species assumed): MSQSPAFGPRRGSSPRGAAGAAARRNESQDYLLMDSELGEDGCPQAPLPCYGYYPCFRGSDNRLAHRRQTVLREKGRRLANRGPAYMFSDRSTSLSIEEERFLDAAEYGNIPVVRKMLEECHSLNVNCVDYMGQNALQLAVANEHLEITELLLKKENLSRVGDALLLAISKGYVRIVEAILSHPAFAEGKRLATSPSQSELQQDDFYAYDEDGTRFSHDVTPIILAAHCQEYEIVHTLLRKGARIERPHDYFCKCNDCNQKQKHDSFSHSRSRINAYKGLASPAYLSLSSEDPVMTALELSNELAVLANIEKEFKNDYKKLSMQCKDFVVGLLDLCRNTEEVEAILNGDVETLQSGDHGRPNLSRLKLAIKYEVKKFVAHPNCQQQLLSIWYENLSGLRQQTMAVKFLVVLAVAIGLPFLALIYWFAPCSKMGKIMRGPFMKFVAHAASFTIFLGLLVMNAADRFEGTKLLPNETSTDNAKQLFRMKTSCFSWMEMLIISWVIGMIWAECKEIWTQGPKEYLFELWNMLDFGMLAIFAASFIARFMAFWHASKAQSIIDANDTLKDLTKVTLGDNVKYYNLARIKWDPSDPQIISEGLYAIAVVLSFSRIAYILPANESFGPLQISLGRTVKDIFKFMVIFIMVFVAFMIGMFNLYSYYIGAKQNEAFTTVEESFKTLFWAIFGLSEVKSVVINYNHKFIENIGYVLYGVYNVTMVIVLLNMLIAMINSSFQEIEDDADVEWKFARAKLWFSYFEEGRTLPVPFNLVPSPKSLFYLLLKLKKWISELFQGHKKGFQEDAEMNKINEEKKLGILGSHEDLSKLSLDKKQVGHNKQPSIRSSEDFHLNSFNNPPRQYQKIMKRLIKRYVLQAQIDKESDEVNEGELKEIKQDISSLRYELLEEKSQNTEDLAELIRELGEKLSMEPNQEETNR
T2 sequence (Q14432 whole entry): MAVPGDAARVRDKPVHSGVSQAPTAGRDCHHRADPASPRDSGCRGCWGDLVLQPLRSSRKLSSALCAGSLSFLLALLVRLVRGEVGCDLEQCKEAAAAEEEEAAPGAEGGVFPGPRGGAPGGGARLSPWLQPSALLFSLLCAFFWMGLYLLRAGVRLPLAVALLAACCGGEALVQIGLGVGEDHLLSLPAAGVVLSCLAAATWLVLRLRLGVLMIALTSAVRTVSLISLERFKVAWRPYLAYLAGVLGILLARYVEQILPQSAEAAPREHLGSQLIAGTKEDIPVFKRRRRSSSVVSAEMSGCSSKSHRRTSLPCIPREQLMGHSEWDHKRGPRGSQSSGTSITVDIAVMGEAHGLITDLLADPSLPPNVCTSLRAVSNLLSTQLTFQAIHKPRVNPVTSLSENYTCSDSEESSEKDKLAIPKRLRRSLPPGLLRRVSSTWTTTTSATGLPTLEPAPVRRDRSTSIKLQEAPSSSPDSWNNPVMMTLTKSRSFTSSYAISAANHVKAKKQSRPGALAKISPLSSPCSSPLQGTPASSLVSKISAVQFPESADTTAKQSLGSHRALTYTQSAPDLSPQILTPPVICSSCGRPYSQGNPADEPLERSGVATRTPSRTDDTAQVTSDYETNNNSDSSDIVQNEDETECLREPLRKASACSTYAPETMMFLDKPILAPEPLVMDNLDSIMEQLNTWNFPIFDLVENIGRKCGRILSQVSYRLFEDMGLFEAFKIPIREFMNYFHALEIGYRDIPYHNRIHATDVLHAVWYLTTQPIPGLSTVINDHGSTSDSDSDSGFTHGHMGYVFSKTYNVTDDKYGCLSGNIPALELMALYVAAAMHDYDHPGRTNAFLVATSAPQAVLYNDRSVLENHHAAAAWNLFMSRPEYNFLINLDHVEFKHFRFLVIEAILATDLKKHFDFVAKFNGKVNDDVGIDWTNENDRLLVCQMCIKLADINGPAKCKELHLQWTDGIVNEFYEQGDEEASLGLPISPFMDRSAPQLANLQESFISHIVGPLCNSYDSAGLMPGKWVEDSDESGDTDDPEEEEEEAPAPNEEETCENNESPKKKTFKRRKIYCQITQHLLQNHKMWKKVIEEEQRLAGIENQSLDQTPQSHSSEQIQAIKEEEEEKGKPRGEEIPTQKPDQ
Sequence of TRPV1 (Q8NER1 whole entry, species assumed): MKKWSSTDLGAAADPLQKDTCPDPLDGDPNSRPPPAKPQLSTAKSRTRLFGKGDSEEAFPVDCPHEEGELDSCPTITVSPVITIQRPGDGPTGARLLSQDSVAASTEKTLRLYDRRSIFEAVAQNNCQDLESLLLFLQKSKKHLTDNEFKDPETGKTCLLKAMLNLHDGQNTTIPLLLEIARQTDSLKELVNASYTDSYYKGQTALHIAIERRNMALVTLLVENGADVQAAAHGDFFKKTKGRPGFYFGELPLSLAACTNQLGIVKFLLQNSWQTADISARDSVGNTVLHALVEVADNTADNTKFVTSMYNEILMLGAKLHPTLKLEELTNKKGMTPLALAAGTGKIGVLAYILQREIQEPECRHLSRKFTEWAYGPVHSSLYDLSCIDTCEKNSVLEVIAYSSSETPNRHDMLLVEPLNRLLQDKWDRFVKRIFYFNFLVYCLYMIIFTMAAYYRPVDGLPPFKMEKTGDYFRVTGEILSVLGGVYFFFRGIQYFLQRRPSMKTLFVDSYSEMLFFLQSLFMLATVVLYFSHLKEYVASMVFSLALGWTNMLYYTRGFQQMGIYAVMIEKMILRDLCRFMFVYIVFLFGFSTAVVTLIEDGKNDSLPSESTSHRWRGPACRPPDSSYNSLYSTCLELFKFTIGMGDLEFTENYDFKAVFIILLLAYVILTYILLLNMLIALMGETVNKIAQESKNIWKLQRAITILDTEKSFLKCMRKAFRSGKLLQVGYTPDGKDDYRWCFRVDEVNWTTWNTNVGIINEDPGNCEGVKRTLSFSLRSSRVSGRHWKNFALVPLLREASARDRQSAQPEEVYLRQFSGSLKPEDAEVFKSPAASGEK
Sequence of H1 (P35367 whole entry): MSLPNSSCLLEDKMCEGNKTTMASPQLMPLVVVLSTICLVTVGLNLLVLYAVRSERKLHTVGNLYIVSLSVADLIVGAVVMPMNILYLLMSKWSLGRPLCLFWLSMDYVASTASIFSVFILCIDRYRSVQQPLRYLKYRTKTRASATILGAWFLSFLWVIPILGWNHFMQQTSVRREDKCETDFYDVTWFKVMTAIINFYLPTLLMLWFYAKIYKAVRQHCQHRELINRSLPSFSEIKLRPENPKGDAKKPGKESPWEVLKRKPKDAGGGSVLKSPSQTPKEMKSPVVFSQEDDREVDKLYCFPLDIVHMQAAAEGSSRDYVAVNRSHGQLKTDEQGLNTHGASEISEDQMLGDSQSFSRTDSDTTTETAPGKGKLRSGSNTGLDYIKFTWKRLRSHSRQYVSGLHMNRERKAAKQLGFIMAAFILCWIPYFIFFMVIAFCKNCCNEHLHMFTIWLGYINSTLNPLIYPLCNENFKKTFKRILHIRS

## O=c1c2c3nc(n2Cc2ccc(Cl)cc2)Oc2ccc(F)c(c2)OCCCCCCn3c(=O)n1CCCO [JDIC-127]
TRPV1
  inhibition at 10 µM: < 33%
5-HTT
  inhibition at 10 µM: -31.8%
TRPC6
  inhibition at 1 µM: < 20%
COX2
  inhibition at 10 µM: 1.38%
C57BL/6J mice
  number of entries into the central area, OFT: significantly increased
H1
  inhibition at 10 µM: -3.39%
i.v., 2 mg/kg, 2 min
  Cbr: 407.01 nmol/kg
  Cpl: 367.10 nmol/L
i.v., 2 mg/kg, 45 min
  Cbr: 198.65 nmol/kg
  Cpl: 51.63 nmol/L
i.v., 2 mg/kg, 180 min
  Cbr: 74.96 nmol/kg
  Cpl: 10.12 nmol/L
p.o., 10 mg/kg, 2 min
  Cbr: 22.16 nmol/kg
  Cpl: 6.36 nmol/L
p.o., 10 mg/kg, 45 min
  Cbr: 223.33 nmol/kg
  Cpl: 88.83 nmol/L
p.o., 10 mg/kg, 180 min
  Cbr: 7.35 nmol/kg
  Cpl: 22.96 nmol/L
PDE3 A
  inhibition at 10 µM: 2.27%
In vitro
  ER: 1.45
  Papp: 1.51 ×10⁻⁶ cm/s
COX1
  Antagonist JDIC-127 @10 μmol/L: –5.92%
GABAA; agonist mode
  Agonist JDIC-127 @ 5 μmol/L: 0.74%
GABAA; antagonist mode
  Antagonist JDIC-127 @5 μmol/L: 26.35%
TRPC4
  pIC50: 12.00
α1A; agonist mode
  Agonist JDIC-127 @10 μmol/L: 0.76%
α1A; antagonist mode, 10 μmol/L, read-out: Antagonist JDIC-127 @10 μmol/L
  inhibition at 10 µM: -3.05%
ETA; agonist mode
  Agonist JDIC-127 @10 μmol/L: 1.45%
ETA; antagonist mode, read-out: Antagonist JDIC-127 @10 μmol/L
  inhibition at 10 µM: 2.63%
In vivo; iv, 2 mg/kg, 2 min
  Kp: 1.1
In vivo; iv, 2 mg/kg, 45 min
  Kp: 3.85
In vivo; iv, 2 mg/kg, 180 min
  Kp: 7.4
In vivo; po, 10 mg/kg, 2 min
  Kp: 3.48
In vivo; po, 10 mg/kg, 45 min
  Kp: 2.51
In vivo; po, 10 mg/kg, 180 min
  Kp: 0.32
